From US9980942B2, “Rejuvenation of precursor cells” (Children's Hospital Medical Center, priority 2012, dated 2018) come the findings set out here.

For the assay, the system named is dorsal skin. Nature of the assay: Wound healing of full-thickness excision wounds after CASIN injection. Format: in vivo, mice. How it is done:
To further assess the effects of in vivo administration of CASIN on aging parameters in the skin, aged mice are treated with CASIN as described in Example 5. The treated and untreated aged and young mice are then tested for and wound healing, as described below.
On day 28 after initial treatment with CASIN, each mouse is tested with 25 mm oblong full-thickness excision wounds (6 mice of each type per experiment), including the striated muscle layer (panniculus carnosus), on the dorsal skin of treated and untreated mice. One day after surgery a clear thin film of dried exudate covers the wounds in both untreated and treated mice. Build-up of dehydrated wound crusts or scabs begin at day 3 and become subsequently more extensive. In the aged, untreated mice, scabs are thicker and extravasation of blood, visible in the gaps within the scabs, is more frequent and extensive than that in the treated mice. In control young mice, and in treated aged mice, loss of wound scabs begins at day 17 and is complete in all mice by day 24 with wounds well-healed and epithelial covering restored. In contrast, the scabs in untreated aged mice start to come off partially around day 14, resulting in a scab with a gaping red wound field, which is evident even at 22 days. Healing of untreated aged mice wounds remains incomplete on day 24, and complete healing in all mice is observed between 25 and 31 days. These experiments indicate that transient treatment (days 1-5) with CASIN causes improved healing of skin wounds.

The mark [1] stands for this setting: treated aged mice, 25 mm full-thickness excision wounds.

Regarding `OCCNC1CCCc2c1[nH]c1ccc(-c3ccccc3)cc21` (stereo not drawn) [CASIN], the wound healing result (aged mice treated as in Example 5) was “respond similarly or nearly identical to the skin of young mice”. In addition, under setting [1], the “loss of wound scabs begins” value worked out at 17 days and the “loss of wound scabs complete in all mice” value is at most 24 days.
